The values below come from patent US8203033B2, “Methods and compositions for providing tolerance to multiple herbicides” (Pioneer Hi-Bred International, Inc., priority 2005, dated 2012).

Common to all, as to format: in vivo
For test [1], the system named is Heterozygous GAT-HRA corn. The experiment in a line: Preemergence test of ALS herbicides on corn (fresh weight, visual injury). The following applies: 200 g/ha, mean of four replications; for Fresh Weight: fresh shoots weighed 4 weeks after treatment; for % Visual Injury: 0% no injury, 100% plant death.
Test [2] deals with Heterozygous GAT-HRA corn. The experiment in a line: Postemergence test of herbicides on corn (fresh weight, visual injury). The following applies: for Fresh Weight: fresh shoots weighed 2 weeks after treatment.
Test [3] deals with parent elite stiff stalk inbred corn. Described as above.
The test system is the same in test [4]. The experiment in a line: Preemergence test of ALS herbicides on corn (fresh weight, visual injury). Conditions: 200 g/ha, mean of four replications; for Fresh Weight: fresh shoots weighed 4 weeks after treatment; for % Visual Injury: 0% no injury, 100% plant death.
Test [5] concerns GAT-HRA maize. The experiment in a line: Evaluation of herbicide tolerance, spray at V2 stage. Conditions: postemergence; tribenuron, chlorimuron, imazapyr 200 g ai/ha; metsulfuron-methyl 35 g ai/ha. The method, then: GAT-HRA maize plants were evaluated for tolerance to glyphosate and other herbicides. One protocol used in this evaluation was as follows. At the V2 stage (Ritchie and Hanway (1982), “How a corn plant develops” Spec. Rep. 48. (Coop. Ext. Ser., Iowa State Univ., Ames, Iowa)), plant heights were measured and herbicides were applied by spray application. Ten to fourteen days after the spray application, the transgenic plants were evaluated for injury symptoms and measured for plant height again in order to determine plant growth rates.
Plants were then evaluated at various times after treatment, such as 10 or 14 days after treatment. […] Leaf samples were taken from GAT-HRA plants and used in quantitative PCR analysis and other analyses to determine the number and arrangement of copies of the GAT and HRA polynucleotides that had been integrated into the plant genome.
Other protocols for evaluation included treatment with imidazolinone herbicides, such as the commercial herbicide Lightning® (a combination of imazapyr and imazethapyr), which was applied to GAT-HRA maize at the V2 leaf stage at four times the field label rate (250 g ai/ha). […] Another protocol for evaluation included treatment with imidazolinone herbicides as well as sulfonylurea and glyphosate herbicides. In these tests, GAT-HRA maize was treated with various combinations of Lightning® (imazapyr and imazethapyr), Basis® (rimsulfuron and thifensulfuron-methyl) and WeatherMAX® (glyphosate potassium salt). These herbicides were applied at the V2 stage as follows: Lightning® at twice the field label rate (1.8 oz ai/ac (133 ml ai/ha)), Basis® at twice the field label rate (0.5 oz ai/ac (36.9 ml ai/ha)) and WeatherMax® at four times the field label rate (43 oz ai/ac). Fourteen days after the treatment application, the plants were evaluated. […] “Field label rate” refers to the application rate specified on the product label. Where the application rate for a particular situation is a range of rates, as used herein, the term “field label rate” indicates the upper end of that range. […]

The test system of test [6] is control maize. Described as above. The following applies: postemergence; tribenuron, chlorimuron, imazapyr 200 g ai/ha; metsulfuron-methyl 35 g ai/ha.
Test [7] concerns Hairy Fleabane (Conyza bonariensis). The experiment in a line: Glyphosate, metsulfuron-methyl and two additives on the control of hairy fleabane. The method, then: This example included the same treatments as used in Example 11, except the treatments were carried out on a glyphosate sensitive biotype of Kleinskraalhans (Conyza bonariensis).
The mark [8] stands for this setting: 200 g/ha, 0% no injury, 100% plant death, mean of four replications.
Where [9] appears, read: 200 g/ha, mean of four replications.
Where [10] appears, read: 200 g/ha, fresh shoots weighed 2 weeks after treatment, mean of four replications.

Take `CCOc1nc(F)cc2nc(S(=O)(=O)Nc3c(Cl)cccc3C(=O)OC)nn12` [Chloransulam-methyl, methyl 3-chloro-2-[[(5-ethoxy-7-fluoro-[1,2,4]triazolo[1,5-c]pyrimidin-2-yl)sulfonyl]amino]benzoate]: the “Fresh Weight” value in test [1] came out at 44.9 g; in test [2] (setting [9]), 104.4 g; in test [3] (setting [10]) it was 6.8 g; in test [4], 5.5 g. Moreover, the figures for the “% Visual Injury” value in test [2] (setting [8]) and in test [3] (setting [8]) were 3% and 96%, respectively.

Consider `CCOC(=O)c1ccccc1S(=O)(=O)NC(=O)Nc1nc(Cl)cc(OC)n1` [Chlorimuron-ethyl, ethyl 2-[[[[(4-chloro-6-methoxy-2-pyrimidinyl)amino]carbonyl]amino]sulfonyl]-benzoate], for which the “damage from the treatment” value in test [5] is on record as “no significant damage”; in test [6], “severely damaged or killed”. Also, the “% Visual Injury” value stood at 10% in test [1], 15% in test [2] (setting [8]), 93% in test [3] (setting [8]) and 100% in test [4]. Also, in test [4], the “Fresh Weight” value was 9.3 g.

In the case of `CCOc1nc(NC)nc(NC(=O)NS(=O)(=O)c2ccccc2C(=O)OC)n1` [Ethametsulfuron-methyl, methyl 2-[[[[[4-ethoxy-6-(methylamino)-1,3,5-triazin-2-yl]amino]carbonyl]amino]sulfonyl]benzoate], the “% Visual Injury” value in test [1] was found to be 88%; in test [2] (setting [8]), 6%; in test [3] (setting [8]), 96%; in test [4] it was 100%. Besides, the “Fresh Weight” value is reported as 98.0 g in test [2] (setting [9]), 5.6 g in test [3] (setting [10]) and 1.6 g in test [4].

As to `COc1nn(C(=O)NS(=O)(=O)c2ccccc2OC(F)(F)F)c(=O)n1C` [Flucarbazone Na^+, 4,5-dihydro-3-methoxy-4-methyl-5-oxo-N-[[2-(trifluoromethoxy)phenyl]sulfonyl]-1H-1,2,4-triazole-1-carboxamide], the “% Visual Injury” value in test [1] is recorded as 40%; in test [2] (setting [8]), 14%; in test [3] (setting [8]) it was 100%; in test [4], 100%. The “Fresh Weight” value in test [1] was determined as 48.8 g; in test [2] (setting [9]), 86.0 g; in test [3] (setting [10]) it was 3.1 g; in test [4], 0.0 g.

For the compound `COC(=O)c1ccc(C(F)(F)F)nc1S(=O)(=O)NC(=O)Nc1nc(OC)cc(OC)n1` [Flupyrsulfuron-methyl Na^+, methyl 2-[[[[(4,6-dimethoxy-2-pyrimidinyl)amino]carbonyl]amino]sulfonyl]-6-(trifluoromethyl)-3-pyridinecarboxylate], the “% Visual Injury” value in test [1] was 90%; in test [2] (setting [8]) it was 4%; in test [3] (setting [8]), 95%; in test [4] it was 87%. In addition, the “Fresh Weight” value in test [1] came to 45.8 g; in test [2] (setting [9]), 95.5 g; in test [3] (setting [10]), 5.2 g; in test [4], 23.6 g.

Regarding `CP(=O)(O)CCC(N)C(=O)O` (stereo not drawn) [Glufosinate ammonium], the “% Visual Injury” value in test [2] (1870 g/ha) came out at 1%; in test [3] (1870 g/ha), 99%. Besides, the “Fresh Weight” value in test [3] (1870 g/ha, 2 weeks after treatment) was found to be 2.4 g.

`COC(=O)c1c(Cl)nn(C)c1S(=O)(=O)NC(=O)Nc1nc(OC)cc(OC)n1` [Halosulfuron-methyl, methyl 3-chloro-5-[[[[(4,6-dimethoxy-2-pyrimidinyl)amino]-carbonyl]amino]sulfonyl]-1-methyl-1H-pyrazole-4-carboxylate]: the “% Visual Injury” value in test [1] is on record as 15%; in test [2] (setting [8]), 8%; in test [3] (setting [8]), 14%; in test [4] it was 30%.

Consider `CC(C)C1(C)N=C(c2ncccc2C(=O)O)NC1=O` (stereo not drawn) [Imazapyr], for which the “damage from the treatment” value is given as “no significant damage” in test [5] and “severely damaged or killed” in test [6].

For the compound `COC(=O)c1ccc(I)cc1S(=O)(=O)NC(=O)Nc1nc(C)nc(OC)n1` [Iodosulfuron-methyl Na^+, methyl 4-iodo-2-[[[[(4-methoxy-6-methyl-1,3,5-triazin-2-yl)amino]carbonyl]amino]sulfonyl]benzoate], the “% Visual Injury” value in test [1] was 5%; in test [2] (setting [8]), 1%; in test [3] (setting [8]), 100%; in test [4], 92%. The “Fresh Weight” value amounted to 52.5 g in test [1], 95.0 g in test [2] (setting [9]), 3.5 g in test [3] (setting [10]) and 24.4 g in test [4].

Take `COC(=O)c1ccccc1S(=O)(=O)NC(=O)Nc1nc(C)nc(OC)n1` [Metsulfuron-methyl (BRUSH-OFF ®)]: the “Control (%)” value in test [7] (Trial 2: metsulfuron-methyl (BRUSH-OFF) 5 g/ha) and in test [7] (Trial 3: metsulfuron-methyl (BRUSH-OFF) 10 g/ha) was 100% in each case.

For the compound `CCCOc1nn(C(=O)NS(=O)(=O)c2ccccc2C(=O)OC)c(=O)n1C` [Propoxycarbazone Na^+, methyl 2-[[[(4,5-dihydro-4-methyl-5-oxo-3-propoxy-1H-1,2,4-triazol-1-yl)carbonyl]amino]sulfonyl]benzoate], the “% Visual Injury” value is 100% in test [1], 9% in test [2] (setting [8]), 100% in test [3] (setting [8]) and 100% in test [4]. Moreover, the “Fresh Weight” value in test [1] worked out at 46.7 g; in test [2] (setting [9]), 101.2 g; in test [3] (setting [10]), 1.9 g; in test [4], 0.6 g.

For `CO/N=C(/C)c1cccc(Oc2nc(OC)cc(OC)n2)c1C(=O)OC` [Pyriminobac-methyl], the “% Visual Injury” value in test [1] stood at 20%; in test [2] (setting [8]), 4%; in test [3] (setting [8]), 93%; in test [4] it was 83%. Besides, in test [3] (setting [10]), the “Fresh Weight” value was found to be 7.6 g.

Take `COc1cc(OC)nc(Sc2cccc(Cl)c2C(=O)[O-])n1.[Na+]` [Pyrithiobac Na^+, Pyrithiobac]: the “Fresh Weight” value in test [1] was determined as 48.6 g; in test [2] (setting [9]), 87.9 g; in test [3] (setting [10]) it was 2.8 g; in test [4] it was 0.0 g.

As for `COC(=O)c1ccccc1S(=O)(=O)NC(=O)Nc1nc(C)cc(C)n1` [Sulfometuron-methyl, methyl 2-[[[[(4,6-dimethyl-2-pyrimidinyl)amino]carbonyl]amino]sulfonyl]-benzoate], the “% Visual Injury” value in test [1] came out at 6%; in test [2] (setting [8]), 2%; in test [3] (setting [8]), 100%; in test [4] it was 100%. Further, the “Fresh Weight” value was 2.0 g in test [3] (setting [10]) and 0.0 g in test [4].

As to `COc1cc(OC)nc(NC(=O)NS(=O)(=O)c2ncccc2OCC(F)(F)F)n1` [Trifloxysulfuron Na^+, N-[[(4,6-dimethoxy-2-pyrimidinyl)amino]-carbonyl]-3-(2,2,2-trifluoroethoxy)-2-pyridinesulfonamide], the “% Visual Injury” value in test [1] came out at 0%; in test [2] (setting [8]), 29%; in test [3] (setting [8]), 100%; in test [4], 100%. For the same compound, the “Fresh Weight” value came out at 1.0 g in test [3] (setting [10]) and 0.0 g in test [4].

As for `COC(=O)c1cccc(C)c1S(=O)(=O)NC(=O)Nc1nc(OCC(F)(F)F)nc(N(C)C)n1` [Triflusulfuron-methyl], the “Fresh Weight” value in test [3] (setting [10]) stood at 2.1 g.

Turning to `O=C(O)CNCP(=O)(O)O` [glyphosate (ROUNDUP ®)], in test [7] (Trial 1: glyphosate (ROUNDUP) 0.5 L/ha), the “Control (%)” value amounted to 12%.

For Imazamethabenz-methyl, the “Fresh Weight” value in test [2] (setting [9]) came to 95.0 g.
